What was measured:
Format in all cases: physicochemical
[1] = Dissolution test of mist particles (JP12 paddle method); details: for T 50% (dissolution rate of FK506): distilled water 37° C., paddle 50 rpm
Description: Dissolution Test FK506 dissolution from the mist particles after firing FK506 aerosol composition was examined in distilled water at 37° C. using the paddle method at 50 rpm, according to the dissolution test method in JP12. The emitted dose from aerosol composition was adjusted to be one mg FK506 as a total in the test fluid. FK506 was measured by HPLC method. The FK506 aerosol compositions were prepared according to a similar manner to that of Example 2.

[2] = Effect of MCT content on the solubility of FK506 in HFAs; design: key to Solubility of FK506 in HFAs (solution or suspension): ∘: solution; —: suspension
Description: The addition of MCT enables the filling of FK506 as a solution into aerosol system. As a result, the change of spray performance will not be caused by aggregation of FK506 crystalline particles and the emitted dose uniformity of FK506 can be more reliable. The aerosol compositions used in this study were prepared according to a similar manner to that of Example 2.

[3] = Aerodynamic particle size distribution (USP23 Apparatus 1, multistage cascade impactor); details: for Mass Median Aerodynamic Diameter: 0.05% FK506 aerosol composition
Description: Aerodynamic Particle Size Distribution According to the conventional method in USP23 (Apparatus 1), the aerodynamic particle size distribution was assessed from FK506 amount in each stage after applying one mg FK506 to multistage cascade impactor by firing FK506 aerosol composition. FK506 measurement was conducted by HPLC method and the MMAD was calculated from the particle size distribution. The FK506 aerosol compositions were prepared according to a similar manner to that of the below-mentioned Example 2.

T 50% (dissolution rate of FK506) ([1]; HFA-134a, MCT content 0.5%, FK506 0.05%): 29 min
T 50% (dissolution rate of FK506) ([1]; HFA-134a, MCT content 0.5%, FK506 0.2%): 11 min
T 50% (dissolution rate of FK506) ([1]; HFA-134a, MCT content 2%, FK506 0.05%): 41 min
T 50% (dissolution rate of FK506) ([1]; HFA-134a, MCT content 2%, FK506 0.2%): 25 min
T 50% (dissolution rate of FK506) ([1]; HFA-227, MCT content 0%, FK506 0.05%): 5 min
T 50% (dissolution rate of FK506) ([1]; HFA-227, MCT content 0%, FK506 0.2%): 9 min
T 50% (dissolution rate of FK506) ([1]; HFA-227, MCT content 0.5%, FK506 0.05%): 30 min
T 50% (dissolution rate of FK506) ([1]; HFA-227, MCT content 0.5%, FK506 0.2%): 12 min
T 50% (dissolution rate of FK506) ([1]; HFA-227, MCT content 1%, FK506 0.05%): 38 min
T 50% (dissolution rate of FK506) ([1]; HFA-227, MCT content 1%, FK506 0.2%): 15 min
T 50% (dissolution rate of FK506) ([1]; HFA-227, MCT content 2%, FK506 0.05%): 43 min
T 50% (dissolution rate of FK506) ([1]; HFA-227, MCT content 2%, FK506 0.2%): 28 min
T 50% (dissolution rate of FK506) ([1]; HFA-227, MCT content 5%, FK506 0.05%): 51 min
T 50% (dissolution rate of FK506) ([1]; HFA-227, MCT content 5%, FK506 0.2%): 37 min
Release rate of FK506 from the mist particles, trend ([1]; addition of MCT): declined with addition of MCT
Solubility of FK506 in HFAs (solution or suspension) ([2]; MCT content 0.05%, FK506 content 0.05 w/v % in HFA-134a): ∘
Solubility of FK506 in HFAs (solution or suspension) ([2]; MCT content 0.05%, FK506 content 0.05 w/v % in HFA-227): ∘
Solubility of FK506 in HFAs (solution or suspension) ([2]; MCT content 0.05%, FK506 content 0.1 w/v % in HFA-227): —
Solubility of FK506 in HFAs (solution or suspension) ([2]; MCT content 0.05%, FK506 content 0.2 w/v % in HFA-134a): —
Solubility of FK506 in HFAs (solution or suspension) ([2]; MCT content 0.05%, FK506 content 0.2 w/v % in HFA-227): —
Solubility of FK506 in HFAs (solution or suspension) ([2]; MCT content 0.05%, FK506 content 0.5 w/v % in HFA-227): —
Solubility of FK506 in HFAs (solution or suspension) ([2]; MCT content 0.5%, FK506 content 0.05 w/v % in HFA-134a): ∘
Solubility of FK506 in HFAs (solution or suspension) ([2]; MCT content 0.5%, FK506 content 0.05 w/v % in HFA-227): ∘
Solubility of FK506 in HFAs (solution or suspension) ([2]; MCT content 0.5%, FK506 content 0.1 w/v % in HFA-227): ∘
Solubility of FK506 in HFAs (solution or suspension) ([2]; MCT content 0.5%, FK506 content 0.2 w/v % in HFA-134a): —
Solubility of FK506 in HFAs (solution or suspension) ([2]; MCT content 0.5%, FK506 content 0.2 w/v % in HFA-227): —
Solubility of FK506 in HFAs (solution or suspension) ([2]; MCT content 0.5%, FK506 content 0.5 w/v % in HFA-227): —
Solubility of FK506 in HFAs (solution or suspension) ([2]; MCT content 2%, FK506 content 0.05 w/v % in HFA-134a): ∘
Solubility of FK506 in HFAs (solution or suspension) ([2]; MCT content 2%, FK506 content 0.05 w/v % in HFA-227): ∘
Solubility of FK506 in HFAs (solution or suspension) ([2]; MCT content 2%, FK506 content 0.1 w/v % in HFA-227): ∘
Solubility of FK506 in HFAs (solution or suspension) ([2]; MCT content 2%, FK506 content 0.2 w/v % in HFA-134a): ∘
Solubility of FK506 in HFAs (solution or suspension) ([2]; MCT content 2%, FK506 content 0.2 w/v % in HFA-227): ∘
Solubility of FK506 in HFAs (solution or suspension) ([2]; MCT content 2%, FK506 content 0.5 w/v % in HFA-227): —
Solubility of FK506 in HFAs (solution or suspension) ([2]; MCT content 5%, FK506 content 0.05 w/v % in HFA-134a): ∘
Solubility of FK506 in HFAs (solution or suspension) ([2]; MCT content 5%, FK506 content 0.05 w/v % in HFA-227): ∘
Solubility of FK506 in HFAs (solution or suspension) ([2]; MCT content 5%, FK506 content 0.1 w/v % in HFA-227): ∘
Solubility of FK506 in HFAs (solution or suspension) ([2]; MCT content 5%, FK506 content 0.2 w/v % in HFA-134a): ∘
Solubility of FK506 in HFAs (solution or suspension) ([2]; MCT content 5%, FK506 content 0.2 w/v % in HFA-227): ∘
Solubility of FK506 in HFAs (solution or suspension) ([2]; MCT content 5%, FK506 content 0.5 w/v % in HFA-227): —
Solubility of FK506 (change) ([2]; by mixing MCT into liquefied hydrofluoroalkanes): increased up
Mass Median Aerodynamic Diameter ([3]; propellant HFA-134a, MCT content 0.5%): 1.6 μm
Mass Median Aerodynamic Diameter ([3]; propellant HFA-227, MCT content 0.05%): 1.5 μm
Mass Median Aerodynamic Diameter ([3]; propellant HFA-227, MCT content 0.5%): 1.7 μm
Mass Median Aerodynamic Diameter ([3]; propellant HFA-227, MCT content 1%): 2.5 μm
Mass Median Aerodynamic Diameter ([3]; propellant HFA-227, MCT content 2%): 3.1 μm
Mass Median Aerodynamic Diameter ([3]; propellant HFA-227, MCT content 5%): 4.0 μm
SMILES: C=CC[C@@H]1/C=C(\C)C[C@H](C)C[C@H](OC)[C@H]2O[C@@](O)(C(=O)C(=O)N3CCCC[C@H]3C(=O)O[C@H](/C(C)=C/[C@@H]3CC[C@@H](O)[C@H](OC)C3)[C@H](C)[C@@H](O)CC1=O)[C@H](C)C[C@@H]2OC [FK506, 17-allyl-1,14-dihydroxy-12-[2-(4-hydroxy-3-methoxycyclohexyl)-1-methylvinyl]-23,25-dimethoxy-13,19,21,27-tetramethyl-11,28-dioxa-4-azatricyclo-[22.3.1.0^4,9]octacos-18-ene-2,3,10,16-tetraone]
Mass median aerodynamic diameter (MMAD), trend ([3]; FK506 aerosol composition, addition of MCT): increased in proportion to MCT amount added
